“And” between values parts separate entries of the source, which are not always exact repeats. Equal values may be shown once. Read-outs that look alike come from different tables or passages of the source.
Experiments:
[1] = target: TcTryS (Trypanosoma cruzi trypanothione synthetase) (Trypanosoma cruzi, UniProt Q9GT49); experiment: biochemical; type: biochemical; conditions: for inhibition at 30 µM: read-out: % TcTryS inhibition ± 2σn-1; for remaining activity at 30 µM: read-out: TcTryS Activity ± 2σn-1 (%)
[2] = tested on: bloodstream Trypanosoma brucei brucei; experiment: Proliferation/cytotoxicity assay, infective T. b. brucei; type: cell-based; conditions: 24 h, read-out: T. b. Brucei EC50
[3] = target: LiTryS (Leishmania infantum trypanothione synthetase) (Leishmania infantum, UniProt A4I2Z3); experiment: biochemical; type: biochemical; conditions: for inhibition at 30 µM: read-out: % LiTryS inhibition ± 2σn-1; for activity at 30 µM: read-out: LiTryS Activity ± 2σn-1 (%); for IC50: read-out: LiTryS IC50 (estimated)
[4] = target: TbTryS (Trypanosoma brucei trypanothione synthetase) (Trypanosoma brucei brucei, UniProt Q8IEX1); experiment: biochemical; conditions: for inhibition at 30 µM: read-out: % TbTryS inhibition ± 2σn-1; for activity at 30 µM: read-out: TbTryS Activity ± 2σn-1 (%)
Chain of TbTryS (Trypanosoma brucei trypanothione synthetase) (Q8IEX1 1-627): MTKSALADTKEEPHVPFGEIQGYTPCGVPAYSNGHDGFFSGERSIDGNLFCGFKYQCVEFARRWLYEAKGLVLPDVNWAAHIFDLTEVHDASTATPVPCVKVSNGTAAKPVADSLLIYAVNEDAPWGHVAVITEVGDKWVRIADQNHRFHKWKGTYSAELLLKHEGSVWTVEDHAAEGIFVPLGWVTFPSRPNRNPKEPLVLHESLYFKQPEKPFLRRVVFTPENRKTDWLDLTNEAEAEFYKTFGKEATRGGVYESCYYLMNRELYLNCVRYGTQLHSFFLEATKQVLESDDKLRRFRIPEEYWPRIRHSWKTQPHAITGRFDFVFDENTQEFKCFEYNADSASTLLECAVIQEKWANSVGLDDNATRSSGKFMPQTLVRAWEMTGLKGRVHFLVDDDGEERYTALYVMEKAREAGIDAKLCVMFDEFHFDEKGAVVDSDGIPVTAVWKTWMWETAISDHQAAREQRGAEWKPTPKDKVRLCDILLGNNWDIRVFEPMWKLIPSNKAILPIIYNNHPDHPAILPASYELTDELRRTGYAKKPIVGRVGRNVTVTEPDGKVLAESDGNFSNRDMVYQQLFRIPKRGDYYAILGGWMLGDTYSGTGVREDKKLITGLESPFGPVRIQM

Chain of LiTryS (Leishmania infantum trypanothione synthetase) (A4I2Z3 1-652): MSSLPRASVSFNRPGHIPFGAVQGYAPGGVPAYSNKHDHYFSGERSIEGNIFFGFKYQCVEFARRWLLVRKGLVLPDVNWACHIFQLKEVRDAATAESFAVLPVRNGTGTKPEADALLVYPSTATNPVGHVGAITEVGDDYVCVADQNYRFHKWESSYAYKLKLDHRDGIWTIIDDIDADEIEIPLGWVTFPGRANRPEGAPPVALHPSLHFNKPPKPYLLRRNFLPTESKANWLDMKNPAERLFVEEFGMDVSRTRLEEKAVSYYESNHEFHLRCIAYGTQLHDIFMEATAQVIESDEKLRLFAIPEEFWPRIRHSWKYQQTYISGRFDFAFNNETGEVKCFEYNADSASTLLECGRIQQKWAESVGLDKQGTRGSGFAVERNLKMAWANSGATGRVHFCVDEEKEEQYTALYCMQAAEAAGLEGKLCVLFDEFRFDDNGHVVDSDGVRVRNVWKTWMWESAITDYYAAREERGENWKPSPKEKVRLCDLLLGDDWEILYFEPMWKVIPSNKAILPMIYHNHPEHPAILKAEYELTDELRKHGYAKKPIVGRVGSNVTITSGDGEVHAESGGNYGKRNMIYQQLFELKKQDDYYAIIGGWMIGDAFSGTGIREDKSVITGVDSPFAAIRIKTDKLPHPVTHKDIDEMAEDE
Chain of TcTryS (Trypanosoma cruzi trypanothione synthetase) (Q9GT49 whole entry): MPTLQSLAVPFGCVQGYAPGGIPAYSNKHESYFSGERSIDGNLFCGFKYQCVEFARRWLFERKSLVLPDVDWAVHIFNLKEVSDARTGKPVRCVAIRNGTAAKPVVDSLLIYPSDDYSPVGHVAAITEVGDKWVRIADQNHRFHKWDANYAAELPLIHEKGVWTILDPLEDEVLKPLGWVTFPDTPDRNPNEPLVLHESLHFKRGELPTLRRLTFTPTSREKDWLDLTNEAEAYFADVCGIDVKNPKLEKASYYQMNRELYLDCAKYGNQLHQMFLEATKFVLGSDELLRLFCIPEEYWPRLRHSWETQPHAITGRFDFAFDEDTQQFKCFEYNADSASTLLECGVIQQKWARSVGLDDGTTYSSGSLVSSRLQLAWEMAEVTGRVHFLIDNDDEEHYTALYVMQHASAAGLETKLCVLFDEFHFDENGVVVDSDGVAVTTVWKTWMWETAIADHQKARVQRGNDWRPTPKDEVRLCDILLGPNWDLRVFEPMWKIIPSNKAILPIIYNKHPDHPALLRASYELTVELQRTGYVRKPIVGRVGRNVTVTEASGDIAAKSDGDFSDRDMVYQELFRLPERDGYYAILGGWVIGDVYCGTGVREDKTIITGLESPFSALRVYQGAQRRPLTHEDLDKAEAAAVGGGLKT

Structure (SMILES) | LiTryS Activity ± 2σn-1 (%) [3] | TbTryS Activity ± 2σn-1 (%) [4] | TcTryS Activity ± 2σn-1 (%) [1] | further results
COc1cc(CNCCCCNCc2ccc(OCc3ccccc3)c(OC)c2)ccc1OCc1ccccc1 [APC1-89] |  |  |  | inhibition at 30 µM [1]: 25.6 ± 1.4%; remaining activity at 30 µM [1]: 74.4%; EC50 [2]: 0.061 ± 0.001 µM; inhibition at 30 µM [3]: 23.4%; activity at 30 µM [3]: 76.6%; IC50 [4]: ~30 µM; inhibition at 30 µM [4]: 50.9%
CC1CS(=O)(=O)CCN1/N=C/c1ccc([N+](=O)[O-])o1 (centres unmarked) [nifurtimox, reference compound] |  |  |  | EC50 ([2]; bloodstream T. b. brucei): 5 µM
COc1cc(CNCCCCCCCCNCc2ccc(OCc3ccccc3)c(OC)c2)ccc1OCc1ccccc1 [APC1-111, N^1,N^8-bis(4-(benzyloxy)-3-methoxybenzyl)octane-1,8-diamine] | halved | halved |  | inhibition at 30 µM [1]: 28.9%; remaining activity at 30 µM [1]: 71.1%; EC50 [2]: 0.04 ± 0.001 µM; inhibition at 30 µM [3]: 49.6%; IC50 [3]: ~30 µM; IC50 [4]: ≤ 30 µM; inhibition at 30 µM [4]: 55.6%; activity at 30 µM [4]: 44.4%
CCCCn1c(=O)[nH]c(=O)c2c1nc(CSc1cccc(C(F)(F)F)c1)n2C [Compound C3, reference compound] | 84.5 ± 3.3; 3% | 92.7 ± 3.6; 3% | 91.1 ± 4.6; 4% | 
Cc1ccc2nc(N3C(=O)C(O)=C(C(=O)c4ccc5c(c4)OCCO5)C3c3ccc(F)cc3)sc2c1 (centres unmarked) [ADMRC154] | 64.7 ± 3.7; 4% | 110.3 ± 8.7 ; 12% | 93.9 ± 2.1; 3% | % LiTryS inhibition ± 2σn-1 [3]: ~35%
COc1cc(CNCCCCCCNCc2ccc(OCc3ccccc3)c(OC)c2)ccc1OCc1ccccc1 [APC1-101] |  |  |  | inhibition at 30 µM [1]: 17%; remaining activity at 30 µM [1]: 83%; EC50 [2]: 0.28 ± 0.09 µM; inhibition at 30 µM [3]: 26.3%; activity at 30 µM [3]: 73.7%; IC50 [4]: ≤ 30 µM; inhibition at 30 µM [4]: 61.2%; activity at 30 µM [4]: 38.8%
Brc1ccc(CNCCCCCCCCCCNCc2ccc(Br)cc2)cc1 [EAP1-57] | 75.2 ± 4.5; 3% | 62.6 ± 3.6; 3 (1.26) % | 81.2 ± 4.2; 3% | 
COc1ccc(C2C(C(=O)c3ccc4c(c3)OCCO4)=C(O)C(=O)N2c2nc3ccc(C)cc3s2)cc1 (centres unmarked) [AD81] |  |  | 109.7 ± 8.9; 4% | remaining activity at 30 µM [1]: 110 ± 8.9%; activity at 30 µM [3]: 83.9 ± 4.2%; TbTryS Activity ± 2σn-1 (%) ([4]; 30 µM): 128.2 ± 3.6 ; 8 (0.93) %; activity at 30 µM [4]: 128%
[O-][n+]1onc2cc(Br)ccc21 [Compound J33] | 76.0 ± 6.8; 3% | 96.5 ± 6.3; 3% | 98.1 ± 4.0; 3% | 
c1ccc(CNCCCCCCCCCCCCNCc2ccccc2)cc1 [EAP1-9] | 89.6 ± 9.4; 3% | 74.9 ± 4.1; 4% | 87.3 ± 5.4; 4% | 
COc1ccc(C2C(C(=O)c3ccc(OC)c(OC)c3)=C(O)C(=O)N2c2nc3ccc(OC)cc3s2)cc1 (centres unmarked) [ADPKN 162] | 79.8 ± 3.4; 4% | 82.0 ± 1.6; 3% | 98.1 ± 4.7; 4% | 
c1ccc(COc2ccc(CNCCCCCCCCCCNCc3ccc(OCc4ccccc4)cc3)cc2)cc1 [APC1-117] | 69.8 ± 6.5; 3% | 71.4 ± 6.1; 4% | 90.8 ± 12.3; 2% | 
Cc1ccc2nc(N3C(=O)C(O)=C(C(=O)c4ccc5c(c4)OCCO5)C3c3ccc(O)cc3)sc2c1 (centres unmarked) [AD82] | 86.2 ± 5.8; 4% | 107.7 ± 6.4; 4% | 103.4 ± 6.4; 2% | 
CC(C)c1ccc(CNCCCCCCCCNCc2ccc(C(C)C)cc2)cc1 [EAP1-37] | 77.4 ± 7.9; 9 (1.284) % | 56.8 ± 5.6; 3 (1.43) % | 65.6 ± 5.3; 4 (1.46) % | 
[O-][n+]1onc2cc(I)ccc21 [Compound J27] | 71.0 ± 8.0; 3% | 98.2 ± 5.6; 3% | 90.1 ± 5.9; 3% | 
Cc1ccc(CNCCCCCCCCCCNCc2ccc(C)cc2)cc1 [EAP1-55] | 71.5 ± 5.8; 4% | 61.8 ± 4.8; 3% | 68.6 ± 3.9; 2% | 
CC(C)(C)NC(=O)Nc1nc2nc(N)ncc2cc1-c1ccc2ccccc2c1 [ZEA10] |  |  |  | inhibition at 30 µM [1]: 32.3 ± 4%; remaining activity at 30 µM [1]: 67.7%; EC50 [2]: 0.28 ± 0.08 µM; inhibition at 30 µM [3]: 32.1 ± 6.4%; activity at 30 µM [3]: 67.9%; IC50 [4]: ~30 µM; inhibition at 30 µM [4]: 50%
[O-][n+]1onc2cc(Cl)ccc21 [Compound J12] | 93.8 ± 3.9; 4% | 92.7 ± 2.7; 3% | 63.7 ± 0.5; 4% | 

Structure (SMILES) | LiTryS Activity ± 2σn-1 (%) [3] | TbTryS Activity ± 2σn-1 (%) [4] | TcTryS Activity ± 2σn-1 (%) [1] | further results
O=C(C1=C(O)C(=O)N(c2nc3ccc(Cl)cc3s2)C1c1ccc(O)cc1)c1ccc2c(c1)OCCO2 (centres unmarked) [AD83] | 83.9 ± 3.8; 4% | 106.9 ± 4.7; 3% | 93.6 ± 4.7; 3 (0.93) % | 
c1ccc(CNCCCCCCCCNCc2ccccc2)cc1 [EAP1-5 (I)] | 62.8 ± 3.9; 4% | 78.3 ± 3.6; 4% | 82.8 ± 5.2; 3% | 
COc1ccc(C2C(C(=O)c3ccc4c(c3)OCCO4)=C(O)C(=O)N2c2nc3ccccc3s2)cc1 (centres unmarked) [ADPKN165] |  |  | 107.1 ± 4.5; 4% | remaining activity at 30 µM [1]: 107 ± 4.5%; activity at 30 µM [3]: 83.5 ± 6%; activity at 30 µM [4]: 166%
COc1ccc(CNCCCNCc2ccc(OC)cc2)cc1 [APC1-67] |  |  |  | remaining activity at 30 µM [1]: 92.4%; activity at 30 µM [3]: 102%; activity at 30 µM [4]: 71.9%
Clc1ccc(CNCCCCCCCCNCc2ccc(Cl)cc2)cc1 [EAP1-43] | 78.0 ± 5.9; 4% | 69.7 ± 3.0; 4% | 87.9 ± 4.7; 4% | 
COc1ccc(C2C(C(=O)c3ccc4c(c3)OCCO4)=C(O)C(=O)N2c2nc3ccc(Cl)cc3s2)cc1OC (centres unmarked) [ADMRC157] | 89.1 ± 2.8; 4% | 102.1 ± 0.01; 3% | 109.2 ± 1.5; 4% | 
[O-][n+]1onc2ccccc21 [J09/J34] | 84.9 ± 5.5; 4% | 90.9 ± 5.9; 4% | 102.2 ± 3.3; 3% | 
COc1ccc(CNCCCCCCCCCCCCNCc2ccc(OC)cc2)cc1 [EAP1-11] | 62.0 ± 7.8; 4% | 77.2 ± 4.5; 5 (1.30) % | 82.8 ± 7.6; 3% | 
CCNC(=S)Nc1nc2nc(NCCCN3CCOCC3)ncc2cc1-c1cc(OC)cc(OC)c1 [ZVR159] |  |  | 168.6 ± 4.1; 4 (1.10) % | % TryS activity (TcTryS) [1]: 1.2 ± 3.1; 3% and 0.2 ± 4.0; 4% and 1.2 ± 5.1; 4%; remaining activity at 30 µM [1]: 169%; activity at 30 µM [3]: 101 ± 5.8%; activity at 30 µM [4]: 81.3 ± 1.6%
Cc1ccc2nc(N3C(=O)C(O)=C(C(=O)c4ccc5c(c4)OCCO5)C3c3ccccc3)sc2c1 (centres unmarked) [ADMRC151] | 83.1 ± 2.3; 3% | 107.7 ± 6.1; 3% | 97.0 ± 5.2; 3% | 
c1ccc(COc2ccc(CNCCCCNCc3ccc(OCc4ccccc4)cc3)cc2)cc1 [APC1-87] |  |  |  | inhibition at 30 µM [1]: 26.6 ± 4.1%; remaining activity at 30 µM [1]: 73.4%; IC50 [3]: ~30 µM; inhibition at 30 µM [4]: 37.9 ± 4%; activity at 30 µM [4]: 62.1%
COc1ccc(CNCCCCCCNCc2ccc(OC)cc2)cc1 [APC1-98] | 79.6 ± 5.6; 4% | 72.8 ± 3.7; 4% | 94.2 ± 5.5; 2% | 
COc1ccc2c(c1)no[n+]2[O-] [Compound J14] | 96.1 ± 7.3; 4% | 93.1 ± 5.6; 4% | 77.2 ± 4.4; 4% | 
[O-][n+]1onc2cc(F)ccc21 [Compound J31] |  |  | 118.8 ± 6.1; 4 (1.00) % | remaining activity at 30 µM [1]: 119%; activity at 30 µM [3]: 84.1 ± 0.001%; activity at 30 µM [4]: 96.2 ± 3.7%
CC(C)(C)NC(=O)Nc1ncc2cc(-c3ccc4c(c3)OCO4)c(NC(=O)NC(C)(C)C)nc2n1 [ZEA40] |  |  |  | inhibition at 30 µM [1]: 50%; inhibition at 30 µM [3]: 15.3 ± 8.3%; activity at 30 µM [3]: 84.7%; inhibition at 30 µM [4]: 25.3 ± 5.2%; activity at 30 µM [4]: 74.7%
Clc1ccc(CNCCCCCCCCCCNCc2ccc(Cl)cc2)cc1 [EAP1-53] | 69 ± 5.7; 4 (1.305) % | 63.9 ± 4.1; 4 (1.34) % | 73.3 ± 2.3; 4% | 
CCCCN(CCCC)C(=O)c1cnc(N)o1 [ZVR103] | 99.4 ± 5.6; 4% | 82.4 ± 4.7; 3% | 100.0 ± 5.0; 2% | 
COc1cc(CNCCCCNCc2ccc(O)c(OC)c2)ccc1O [APC1-93] | 101.3 ± 8.7. 4% | 94.0 ± 9.1; 5% | 94.4 ± 2.4; 4% | 
